The source made the active and inactive calls. No rule for the calls is given here.
Each molecule was assayed on B cell line, CD40 signaling inhibition reporter (assay: inhibitors of CD40 signaling, dose response, B cell lineage (AID 1259332);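 also: cells stimulated with CD40 ligand tCD40L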).

SMILES	AC50
C[C@@H]1CN([C@@H](C)CO)C(=O)c2c(c3ccccc3n2C)-c2ccccc2CO[C@@H]1CN(C)C(=O)Nc1ccccc1C(F)(F)F	9.94 µM
COc1ccc(/C=C/C(=O)Nc2ccccc2C(=O)O)cc1OC	6.12 µM
Cc1ccc(OCCn2cnc3c(N)ncnc32)cc1	0.649 µM
c1ccc2nc(-c3nc4ccccc4o3)ccc2c1	4.54 µM
C[C@@H]1C[C@@H]([C@H](O)CC2CC(=O)NC(=O)C2)C(=O)[C@@H](C)C1	0.393 µM
C[C@H]1CN([C@@H](C)CO)C(=O)c2ccccc2-c2ccccc2CO[C@@H]1CN(C)Cc1ccccc1C(F)(F)F	7.28 µM
COc1ccc2c(c1)c1ncn(Cc3ccccn3)c(=O)c1n2C	> 20 µM (inactive)
Oc1c(Cl)cc(Cl)c(Cl)c1Cc1c(O)c(Cl)cc(Cl)c1Cl	3.6 µM
C[C@@H]1CN([C@@H](C)CO)C(=O)c2c(c3ccccc3n2C)-c2ccccc2CO[C@H]1CN(C)Cc1cccc(C(F)(F)F)c1	10.7 µM
C[C@@H]1CN([C@@H](C)CO)C(=O)c2c(c3ccccc3n2C)-c2ccccc2CO[C@H]1CN(C)C(=O)Nc1cccc(C(F)(F)F)c1	9.25 µM
CCC(=O)O[C@]1(C(=O)CCl)[C@@H](C)C[C@H]2[C@@H]3CCC4=CC(=O)C=C[C@]4(C)[C@@]3(F)[C@@H](O)C[C@@]21C	> 20 µM (inactive)
CC1CC(C)C(=O)C(C(O)CC2CC(=O)NC(=O)C2)C1 (stereo not given)	0.196 µM
CC1CCCC=CC2CC(OC(=O)CN(C)C)CC2C(O)C=CC(=O)O1 (stereo not given)	1.77 µM
CCCCCCCCCCCCCCCC[n+]1ccccc1	0.266 µM
CC(=O)OC1CCC2(C)C(CCC3C4CC=C(C(C)=O)C4(C)OC(=O)CC32)C1 (stereo not given)	2.3 µM
Cc1noc(C)c1S(=O)(=O)Nc1ccc2c(c1)CC(=O)N([C@@H](C)CO)C[C@@H](C)[C@@H](CN(C)Cc1ccc(Oc3ccccc3)cc1)O2	7.39 µM
Cc1cc(OCC(=O)OCC(=O)NCc2ccco2)ccc1Cl	9.63 µM
c1ccn2cc(-c3ccc4c(c3)OCCO4)nc2c1	10.2 µM
COC(=O)C1=C(C(=O)OC)C2OC1c1cc3ccccc3cc12	0.738 µM
O=C(C1CC1)N1C[C@@H]2N[C@H](C1)[C@@H]2c1ccc(-c2ccncc2)cc1	5.72 µM
CC[C@@]1(O)C(=O)OCc2c1cc1n(c2=O)Cc2cc3c(CN(C)C)c(O)ccc3nc2-1	0.9 µM
COc1ccc(/C=C\c2nc(=O)c3ccccc3o2)cc1	7.67 µM
COc1ccc(S(=O)(=O)N(C)C[C@H]2Oc3ccc(NC(=O)Nc4ccc(C(F)(F)F)cc4)cc3C(=O)N([C@H](C)CO)C[C@H]2C)cc1	10.5 µM

SMILES	AC50
CCOC(=O)c1c(SCCN2CCCC2)n(-c2ccccc2)c(=S)n(-c2ccccc2)c1=O	> 20 µM (inactive)
CC(=O)Nc1ccc(Sc2ccc([N+](=O)[O-])o2)cc1	1.99 µM
CC1OC(OC2CC(O)C3(CO)C4C(O)CC5(C)C(C6=CC(=O)OC6)CCC5(O)C4CCC3(O)C2)C(O)C(O)C1O (stereo not given)	0.405 µM
N#C[C@H]1N[C@H](CO)[C@H]1c1ccc(C#CC2CCCC2)cc1	6.27 µM
C[C@@H]1CN([C@H](C)CO)C(=O)c2c(c3ccccc3n2C)-c2ccccc2CO[C@@H]1CN(C)C(=O)c1cc(Cl)cc(Cl)c1	8.65 µM
COC(=O)C1=C(C(=O)OC)C(C(=O)OC)C(C(=O)OC)C(C(=O)OC)(C(=O)OC)C(C(=O)OC)=C1C(=O)OC (stereo not given)	3.44 µM
CCCNC(=O)N1[C@H](C#N)[C@H](c2ccc(C3=CCCCC3)cc2)[C@@H]1CO	> 20 µM (inactive)
c1ccc2sc(-c3ccc4c(c3)OCO4)nc2c1	8.5 µM
Cc1nc(C)c(C(=O)Nc2ncc([N+](=O)[O-])s2)o1	9.08 µM
CC(C)(C)CC(C)(C)c1ccc(O)c(Cc2ccc(Cl)cc2Cl)c1	7.11 µM
COc1ccc(/C=C2/CCC(CN3CCOCC3)C2=O)cc1 (stereo not given)	3.67 µM
Cc1c(CCOC(=O)CC23CC4CC(CC(C)(C4)C2)C3)sc[n+]1CC(=O)c1ccccc1	3.22 µM
O=C(Cc1ccccc1)N1CC[C@@H]2[C@H]1c1cc(-c3cccc(F)c3)ccc1N[C@@H]2CO	1.89 µM
CC1CC(C)CC(C)C(O)C(C#N)=CC=CCC(C2CCCC2C(=O)O)OC(=O)CC(O)C(C)C1 (stereo not given)	< 0.0005 µM
C[C@@H]1CN([C@@H](C)CO)C(=O)Cc2cc(NS(=O)(=O)c3ccc(F)cc3)ccc2O[C@H]1CN(C)Cc1ccc(C(F)(F)F)cc1	3.75 µM
O=C1C=CC(=O)c2c(O)c(N3CCN(CCOCCO)CC3)c(Br)c(O)c21	1.91 µM
CC1CC(C)(O)CC(C(O)CC2CC(=O)NC(=O)C2)C1=O (stereo not given)	0.0973 µM
CC(NCC(O)COCCC12CC3CC(CC(C3)C1)C2)c1ccccc1 (stereo not given)	4.88 µM
N#Cc1c(Br)n(C2OC(CO)C(O)C2O)c2ncnc(N)c12 (stereo not given)	1.74 µM
COc1ccc2c3c([nH]c2c1)[C@H](CO)N(C(=O)Nc1ccc(F)cc1)CC31CCN(C(=O)c2ccccc2F)CC1	6.92 µM
O=C(Nc1ccccn1)c1ccc(-c2ccccc2)cc1	2.35 µM
CC1(C)C(=O)C=C[C@@]2(C)C1C[C@@H](O)[C@]1(C)C2CC[C@@]2(C)[C@H](c3ccoc3)OC(=O)[C@H]3O[C@]321 (stereo not given in full)	7.18 µM
